The text below walks through data of patent US11851696B2, “Microorganisms and process for producing glycolic acid from pentoses and hexoses” (Institut National Des Sciences Appliquées De Toulouse, priority 2018, dated 2023).

Data set [1] addresses T1, E. coli K12 MG1655 aldehyde dehydrogenase (glycolaldehyde dehydrogenase, AldA), polyhistidine-tagged (aldA-His), wild type, SEQ ID NO: 4 (Escherichia coli, UniProt P25553).
T1 sequence (P25553 1-479): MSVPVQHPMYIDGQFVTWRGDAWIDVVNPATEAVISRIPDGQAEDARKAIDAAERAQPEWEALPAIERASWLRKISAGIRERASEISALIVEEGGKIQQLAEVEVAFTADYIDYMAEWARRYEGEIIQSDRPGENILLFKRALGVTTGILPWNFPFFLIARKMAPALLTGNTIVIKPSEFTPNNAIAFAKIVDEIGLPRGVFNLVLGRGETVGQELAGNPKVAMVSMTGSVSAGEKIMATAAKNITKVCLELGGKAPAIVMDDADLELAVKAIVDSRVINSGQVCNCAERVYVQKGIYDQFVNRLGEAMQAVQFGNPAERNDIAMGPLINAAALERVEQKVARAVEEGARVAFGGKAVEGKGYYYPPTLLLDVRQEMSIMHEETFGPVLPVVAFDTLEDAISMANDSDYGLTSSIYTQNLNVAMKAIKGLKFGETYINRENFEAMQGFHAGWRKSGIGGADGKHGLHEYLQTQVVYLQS
Description: AldA (aldehyde dehydrogenase) activity on glycolaldehyde, NADH at 340 nm. Format: biochemical.

In data set [2] the test system is fructose-6-phosphate aldolase (FSA). As to conditions: aldolytic activity on D-arabinose-5-phosphate vs fructose-6-phosphate; cited from earlier work.
Substrate in data set [3]: O=CCO
Description: purified protein, by the assay type. As to conditions: other: substrate glycolaldehyde, 100 mM Tris, pH 7.5, 10 mM MgCl2, 37° C., 3 mM NAD+, 3 mM ATP.

Substrate in data set [4]: O=P(O)(O)OC[C@H]1OC(O)[C@@H](O)[C@@H]1O
The experiment in a line: FSA (fructose-6P aldolase) activity on D-arabinose-5P, coupled to AldA or to TPI and G3PDH, NADH at 340 nm. It is filed as biochemical, Escherichia coli K12 MG1655. As to conditions: other: substrate D-arabinose-5P, 100 mM Tris, pH 7.5, 10 mM MgCl2, 37° C., coupled to AldA (2 mM NAD+) or TPI/G3PDH (0.4 mM NADH). The text has this: To construct a system in vitro, the inventors have cloned the ORFs (“Open Reading Frames”) of the xylose isomerase (XylA), xylulokinase (XylB), arabinose isomerase (AraA), ribulose kinase (AraB), L-ribulose-5-phosphate 4-epimerase (AraD), ribulose-5-phosphate-3-epimerase (RPE), D-arabinose-5-phosphate isomerase (KdsD), fructose-6-phosphate aldolase (FSA corresponding to FSAA such as previously defined) and aldehyde dehydrogenase (AdA) of E. coli K12 MG1655 with a polyhistidine tag for a facilitated purification. The oligonucleotides used for amplifying ORFS of the E. coli enzymes are listed in Table 3 below, the sequences SEQ ID NO: making reference to the appended sequence listing. The E. coli genomic DNA which served as on template is that of the strain K12 MG1655.
The plasmids for the expression of the C-terminal polyhistidine tagged proteins XylA, XylB, AraA, AraB, AraD, AraB, Rpe, KdsD, FSA, AdA have been constructed by HiFi Assembly® (NEB) with pET28a as a receiving vector. pET28a has been linearised beforehand with the restriction enzymes HindIII and BamHI (NEB) (Table 4). The E. coli strain NEB5®, derived from DH5 alpha, has been used for cloning and storing the different plasmids.
All the proteins expressed are soluble and have been produced from the expression vector pET28a transformed in an E. coli strain BL21 (DE3). […]

For `O=CCO` [glycolaldehyde], the Vmax in data set [1] (substrate glycolaldehyde (5 mM glycoaldehyde in method), 100 mM Tris, pH 7.5, 10 mM MgCl2, 37° C., 3 mM NAD+, 3 mM ATP) is recorded as 1.16 ± 0.31 U mg^−1. In addition, in data set [1] (substrate glycolaldehyde, pH 7.5, 37° C.), the Vmax/Km is on record as 5 552 .10^−6 min^−1 mg^−1.

Regarding `O=P(O)(O)OC[C@H]1OC(O)[C@@H](O)[C@@H]1O` (stereo partly drawn) [D-arabinose-5P, D-arabinose-5-phosphate], in data set [2], the “affinity (times higher than for fructose-6-phosphate)” value is 10 times.

B1: E. coli K12 MG1655 aldehyde dehydrogenase (glycolaldehyde dehydrogenase, AldA), polyhistidine-tagged (aldA-His), wild type, SEQ ID NO: 4 (Escherichia coli K-12) (protein)
chain: T1 sequence (P25553 1-479)
The Km is the substrate concentration at which the rate is half of its maximum. With B1, the Km in data set [3] was 0.21 ± 0.05 mM.

B2: E. coli K12 MG1655 fructose-6-phosphate aldolase (FSA, FSAA), polyhistidine-tagged (FSA-His), wild type, SEQ ID NO: 2 (Escherichia coli K-12) (protein)
chain: MELYLDTSDVVAVKALSRIFPLAGVTTNPSIIAAGKKPLDVVLPQLHEAMGGQGRLFAQVMATTAEGMVNDALKLRSIIADIVVKVPVTAEGLAAIKMLKAEGIPTLGTAVYGAAQGLLSALAGAEYVAPYVNRIDAQGGSGIQTVTDLHQLLKMHAPQAKVLAASFKTPRQALDCLLAGCESITLPLDVAQQMISYPAVDAAVAKFEQDWQGAFGRTSI
In the case of B2, in data set [4], the Km is 0.652 ± 0.15 mM and the Vmax amounted to 0.26 µmol/min/mg.
